Source: ChEMBL document CHEMBL1201862, “PubChem BioAssay data set” (2004)
The source made the active and inactive calls.

What was measured:
Fatty acid synthase [1] = biological target: T1, Fatty acid synthase (Homo sapiens, UniProt P49327); assay: inhibition of human FAS-TE enzyme activity – biochemical, kinetic fluorescence intensity, dose response (AID 624326); format: functional;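 further: rate of fluorescence rise from hydrolysis of a fluorogenic O-methyl fluorescein ester substrate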
Fatty acid synthase [2] = biological target: T1, Fatty acid synthase; assay: inhibition of human FAS-TE enzyme activity – biochemical, endpoint fluorescence intensity, uHTS hits, dose response (AID 624327); format: functional;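 further: fluorescence from hydrolysis of an O-methyl fluorescein acyl ester substrate by the enzyme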
HEK293 = assay: EBV LMP1 TES2 canonical NF-kB signalling blockers – cell-based, HEK293, luciferase, cherry-pick, dose response (AID 588343); format: functional; conditions: Homo sapiens
[3] = biological target: Glyceraldehyde-3-phosphate dehydrogenase (Homo sapiens, UniProt P04406)
Glyceraldehyde-3-phosphate dehydrogenase, sequence (P04406 whole entry): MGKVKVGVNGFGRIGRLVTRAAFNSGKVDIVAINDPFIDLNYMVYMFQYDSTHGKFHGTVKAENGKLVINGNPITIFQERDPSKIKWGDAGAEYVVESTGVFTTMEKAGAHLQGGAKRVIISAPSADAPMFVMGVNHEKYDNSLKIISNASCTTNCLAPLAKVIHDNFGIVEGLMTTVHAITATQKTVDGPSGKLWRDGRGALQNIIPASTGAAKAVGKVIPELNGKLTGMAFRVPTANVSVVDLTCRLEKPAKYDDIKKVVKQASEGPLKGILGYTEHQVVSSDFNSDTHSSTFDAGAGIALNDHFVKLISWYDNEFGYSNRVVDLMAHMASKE

[4] = biological target: T2, Short transient receptor potential channel 4 (Mus musculus, UniProt Q9QUQ5); assay: calcium entry via TRPC4 opening agents – cell-based, HEK293 TRPC4/mu-opioid, Fluo-4 calcium, dose response (AID 434937); format: functional
T2 sequence (Q9QUQ5 whole entry): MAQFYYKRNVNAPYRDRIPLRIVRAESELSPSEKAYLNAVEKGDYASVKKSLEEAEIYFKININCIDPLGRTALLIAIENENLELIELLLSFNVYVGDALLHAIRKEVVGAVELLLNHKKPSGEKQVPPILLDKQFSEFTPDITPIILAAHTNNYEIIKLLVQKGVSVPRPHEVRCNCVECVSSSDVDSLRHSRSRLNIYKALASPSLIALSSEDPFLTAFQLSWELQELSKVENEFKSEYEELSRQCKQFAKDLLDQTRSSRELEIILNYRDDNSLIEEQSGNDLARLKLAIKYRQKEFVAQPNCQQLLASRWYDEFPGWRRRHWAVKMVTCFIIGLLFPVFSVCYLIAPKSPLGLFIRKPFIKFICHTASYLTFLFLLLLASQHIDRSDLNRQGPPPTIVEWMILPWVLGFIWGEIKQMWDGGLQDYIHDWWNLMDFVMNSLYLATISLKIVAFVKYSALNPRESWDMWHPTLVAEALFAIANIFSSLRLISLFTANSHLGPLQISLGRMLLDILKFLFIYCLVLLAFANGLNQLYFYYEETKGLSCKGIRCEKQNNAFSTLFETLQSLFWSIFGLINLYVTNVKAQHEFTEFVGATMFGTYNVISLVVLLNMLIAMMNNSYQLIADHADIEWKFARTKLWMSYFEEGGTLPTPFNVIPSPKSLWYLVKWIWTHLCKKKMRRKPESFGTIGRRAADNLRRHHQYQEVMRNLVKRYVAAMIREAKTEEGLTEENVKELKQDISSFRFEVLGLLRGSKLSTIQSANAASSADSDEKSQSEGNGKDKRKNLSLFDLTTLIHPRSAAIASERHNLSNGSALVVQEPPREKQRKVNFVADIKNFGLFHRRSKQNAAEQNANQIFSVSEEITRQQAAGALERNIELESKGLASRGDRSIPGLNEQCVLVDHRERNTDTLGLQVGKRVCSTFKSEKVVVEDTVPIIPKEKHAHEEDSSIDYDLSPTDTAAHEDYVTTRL

[5] = biological target: T3, Corticotropin-releasing factor receptor 2/Corticotropin-releasing factor-binding protein (Homo sapiens, UniProt P24387+Q13324); assay: activators of CRF receptor 2 with binding protein – uHTS hits, confirmation (AID 602473); format: functional; conditions: read-out: EC50_Mean
T3 sequence (Q13324 whole entry): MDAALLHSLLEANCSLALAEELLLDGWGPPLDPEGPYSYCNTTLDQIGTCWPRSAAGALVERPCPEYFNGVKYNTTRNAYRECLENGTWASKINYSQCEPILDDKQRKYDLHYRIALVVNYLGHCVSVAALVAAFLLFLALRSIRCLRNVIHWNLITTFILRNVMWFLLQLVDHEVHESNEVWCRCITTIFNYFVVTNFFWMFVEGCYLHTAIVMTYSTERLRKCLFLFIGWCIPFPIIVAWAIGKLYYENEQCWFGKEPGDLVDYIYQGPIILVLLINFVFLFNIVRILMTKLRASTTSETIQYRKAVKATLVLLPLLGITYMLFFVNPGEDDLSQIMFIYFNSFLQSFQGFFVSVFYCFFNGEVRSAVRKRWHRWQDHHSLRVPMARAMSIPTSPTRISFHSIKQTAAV
T3 sequence (P24387 whole entry): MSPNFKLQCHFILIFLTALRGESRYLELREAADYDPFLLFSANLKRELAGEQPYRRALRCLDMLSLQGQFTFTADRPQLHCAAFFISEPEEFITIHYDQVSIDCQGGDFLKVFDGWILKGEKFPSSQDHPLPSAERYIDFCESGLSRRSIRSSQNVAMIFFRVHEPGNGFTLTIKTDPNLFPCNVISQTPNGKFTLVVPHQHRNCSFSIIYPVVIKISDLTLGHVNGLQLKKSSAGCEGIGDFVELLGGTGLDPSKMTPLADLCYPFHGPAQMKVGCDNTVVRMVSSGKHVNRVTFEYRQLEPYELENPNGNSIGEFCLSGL

[6] = biological target: T3, Corticotropin-releasing factor receptor 2/Corticotropin-releasing factor-binding protein; assay: Dose Response confirmation of uHTS hits for small molecule antagonists of the CRF-binding protein and CRF-R2 receptor complex.; format: functional; conditions: read-out: IC50_Mean
Genome polyprotein = Genome polyprotein (dengue virus type 2, UniProt P29990); assay: flavivirus cap methylation enzyme inhibition – biochemical, confirmation dose response, primary screen (AID 588689); format: functional
Genome polyprotein, sequence (P29990 2492-3391 limits assumed): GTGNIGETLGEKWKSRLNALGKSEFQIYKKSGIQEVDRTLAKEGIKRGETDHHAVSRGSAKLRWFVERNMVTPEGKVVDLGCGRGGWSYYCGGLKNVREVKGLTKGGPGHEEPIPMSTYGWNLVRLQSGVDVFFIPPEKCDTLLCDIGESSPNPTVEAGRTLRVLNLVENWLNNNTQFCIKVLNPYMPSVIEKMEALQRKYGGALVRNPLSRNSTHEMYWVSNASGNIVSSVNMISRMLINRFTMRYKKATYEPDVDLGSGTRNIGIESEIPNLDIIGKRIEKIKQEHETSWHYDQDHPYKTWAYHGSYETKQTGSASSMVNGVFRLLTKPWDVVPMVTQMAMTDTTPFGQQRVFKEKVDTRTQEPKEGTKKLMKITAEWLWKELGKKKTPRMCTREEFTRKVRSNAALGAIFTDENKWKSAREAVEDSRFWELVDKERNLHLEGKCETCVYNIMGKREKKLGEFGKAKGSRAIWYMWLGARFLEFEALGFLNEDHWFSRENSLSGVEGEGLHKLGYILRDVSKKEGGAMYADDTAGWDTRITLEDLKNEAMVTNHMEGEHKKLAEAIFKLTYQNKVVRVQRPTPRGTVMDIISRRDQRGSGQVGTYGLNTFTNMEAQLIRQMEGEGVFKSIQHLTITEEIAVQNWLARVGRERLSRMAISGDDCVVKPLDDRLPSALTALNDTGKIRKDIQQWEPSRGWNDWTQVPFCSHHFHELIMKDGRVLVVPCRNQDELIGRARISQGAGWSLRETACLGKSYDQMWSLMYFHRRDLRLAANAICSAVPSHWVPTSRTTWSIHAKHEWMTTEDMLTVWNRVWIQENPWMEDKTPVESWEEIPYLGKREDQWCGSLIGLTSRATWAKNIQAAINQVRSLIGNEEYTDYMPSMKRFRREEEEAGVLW

[7] = off-target signal loss in HeLa-CEM21 co-culture – HeLa F-luc CTL cells, cherry-picked, counter-screen for HIV-1 Env fusion inhibitor project, dose response (AID 652040); format: functional, cell-based;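 further: potency for signal decrease marking cytotoxic or nonspecific inhibition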
[8] = HIV-1 AD8 envelope cell-cell fusion blockers – cherry-pick, dose response (AID 652062); format: functional, cell-based;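 further: luciferase signal from cell-cell fusion driven by HIV-1 clade B AD8 Env; potency is for inhibitors of fusion seen as a drop in luminescence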
[9] = blockers of HIV-1 ZM109 envelope-driven cell-cell fusion – HeLa effector, CEM target cells, luciferase, cherry-pick, dose response (AID 652058); format: functional, cell-based;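 further: luciferase signal from HIV-1 Env mediated cell-cell fusion of effector and target cells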
[10] = blockers of HIV-1 envelope-mediated cell-cell fusion – cherry-pick, dose response (AID 652057); format: functional, cell-based

T1 sequence (P49327 whole entry): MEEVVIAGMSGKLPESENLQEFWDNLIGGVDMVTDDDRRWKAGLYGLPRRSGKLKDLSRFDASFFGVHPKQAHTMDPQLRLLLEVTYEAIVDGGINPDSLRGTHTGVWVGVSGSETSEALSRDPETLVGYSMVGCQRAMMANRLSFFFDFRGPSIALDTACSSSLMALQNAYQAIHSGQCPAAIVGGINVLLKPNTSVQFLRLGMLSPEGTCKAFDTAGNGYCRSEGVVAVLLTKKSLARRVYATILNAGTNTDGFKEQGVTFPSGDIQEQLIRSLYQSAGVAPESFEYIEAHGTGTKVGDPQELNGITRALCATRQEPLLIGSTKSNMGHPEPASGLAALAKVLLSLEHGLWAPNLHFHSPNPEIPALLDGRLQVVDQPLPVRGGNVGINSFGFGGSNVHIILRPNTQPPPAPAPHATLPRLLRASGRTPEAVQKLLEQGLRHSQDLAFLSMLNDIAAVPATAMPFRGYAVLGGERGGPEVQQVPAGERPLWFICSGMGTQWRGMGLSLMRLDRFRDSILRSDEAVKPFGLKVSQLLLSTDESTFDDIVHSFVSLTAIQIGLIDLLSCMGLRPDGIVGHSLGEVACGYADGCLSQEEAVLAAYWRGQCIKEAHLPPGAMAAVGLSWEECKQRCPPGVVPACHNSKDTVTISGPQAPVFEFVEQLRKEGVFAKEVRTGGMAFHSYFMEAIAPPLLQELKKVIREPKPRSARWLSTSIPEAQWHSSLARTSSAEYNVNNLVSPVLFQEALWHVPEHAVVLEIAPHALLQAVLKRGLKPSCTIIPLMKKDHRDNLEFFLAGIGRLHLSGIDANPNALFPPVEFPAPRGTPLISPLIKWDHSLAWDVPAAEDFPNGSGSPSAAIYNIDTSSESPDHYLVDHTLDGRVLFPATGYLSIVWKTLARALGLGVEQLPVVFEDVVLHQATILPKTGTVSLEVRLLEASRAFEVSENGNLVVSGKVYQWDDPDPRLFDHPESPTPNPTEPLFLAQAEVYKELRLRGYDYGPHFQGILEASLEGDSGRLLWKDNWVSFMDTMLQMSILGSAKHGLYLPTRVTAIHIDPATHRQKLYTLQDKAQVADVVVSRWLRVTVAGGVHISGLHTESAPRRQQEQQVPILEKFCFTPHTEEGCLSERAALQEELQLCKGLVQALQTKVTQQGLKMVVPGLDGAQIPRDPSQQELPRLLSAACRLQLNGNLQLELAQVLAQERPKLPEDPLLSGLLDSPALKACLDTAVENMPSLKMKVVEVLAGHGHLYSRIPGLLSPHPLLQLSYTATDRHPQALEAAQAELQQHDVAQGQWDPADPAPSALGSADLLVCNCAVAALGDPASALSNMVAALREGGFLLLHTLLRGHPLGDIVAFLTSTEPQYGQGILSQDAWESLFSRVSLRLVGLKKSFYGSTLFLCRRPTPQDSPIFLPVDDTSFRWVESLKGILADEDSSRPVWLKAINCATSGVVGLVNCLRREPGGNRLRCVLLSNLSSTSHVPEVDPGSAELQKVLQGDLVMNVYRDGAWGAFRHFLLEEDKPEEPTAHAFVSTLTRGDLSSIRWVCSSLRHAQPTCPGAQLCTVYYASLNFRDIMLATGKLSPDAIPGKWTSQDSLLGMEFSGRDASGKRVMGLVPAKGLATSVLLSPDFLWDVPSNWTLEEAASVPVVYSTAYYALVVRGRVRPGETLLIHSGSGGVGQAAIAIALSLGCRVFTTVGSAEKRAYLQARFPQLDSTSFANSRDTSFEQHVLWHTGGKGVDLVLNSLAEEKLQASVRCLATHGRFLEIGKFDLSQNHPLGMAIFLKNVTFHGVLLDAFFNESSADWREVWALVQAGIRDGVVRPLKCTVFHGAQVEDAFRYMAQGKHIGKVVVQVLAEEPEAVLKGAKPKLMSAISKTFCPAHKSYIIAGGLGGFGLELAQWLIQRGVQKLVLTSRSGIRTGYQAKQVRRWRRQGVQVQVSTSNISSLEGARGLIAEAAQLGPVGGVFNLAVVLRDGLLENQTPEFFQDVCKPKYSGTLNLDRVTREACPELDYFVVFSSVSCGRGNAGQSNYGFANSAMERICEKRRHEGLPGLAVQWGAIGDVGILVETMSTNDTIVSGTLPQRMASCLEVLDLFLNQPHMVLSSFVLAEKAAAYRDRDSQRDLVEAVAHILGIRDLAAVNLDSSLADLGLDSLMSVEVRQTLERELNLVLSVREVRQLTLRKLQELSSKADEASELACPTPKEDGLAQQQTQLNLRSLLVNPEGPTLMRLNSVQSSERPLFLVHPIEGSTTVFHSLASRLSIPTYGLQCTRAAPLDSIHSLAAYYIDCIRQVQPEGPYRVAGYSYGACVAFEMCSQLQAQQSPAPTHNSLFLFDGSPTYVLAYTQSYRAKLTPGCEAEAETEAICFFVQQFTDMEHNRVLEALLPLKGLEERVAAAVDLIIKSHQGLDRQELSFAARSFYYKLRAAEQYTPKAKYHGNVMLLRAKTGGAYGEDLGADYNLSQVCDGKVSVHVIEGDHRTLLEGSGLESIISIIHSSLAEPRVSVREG

In the case of `Cc1ccc(Cn2c(C)nc3ccc([N+](=O)[O-])cc3c2=O)cc1`, the IC50 (Fatty acid synthase [1]) is reported as 5.2 µM (active) and the IC50 (Fatty acid synthase [2]) is reported as 4.8 µM (active).

In the case of `N#Cc1c(N)[nH]c(C(=O)c2ccccc2)c1-c1ccc(Cl)cc1`, the IC50 (Fatty acid synthase [1]) is reported as 13.3 µM (active) and the IC50 (Fatty acid synthase [2]) is reported as 7.39 µM (active).

For `Cc1cccc(CN2CCN(Cc3ccc(Cl)cc3)CC2)c1`, the AC50 (HEK293) was 53.2 µM (active).

With `COc1cccc(N2CCN(C3=C(Cl)C(=O)N(c4ccc(C)cc4)C3=O)CC2)c1` the IC50 [3] was > 50 µM (inconclusive).

For `OCCN1CCN(Cc2cc(Br)cc(Br)c2O)CC1`, the EC50 [4] was 0.0293 µM (active).

In the case of `COC(=O)CSC1=NS(=O)(=O)c2ccccc21`, the EC50 [5] is reported as > 53 µM (inactive), the IC50 [6] is reported as > 47.1 µM (inactive) and the IC50 (Genome polyprotein) is reported as 23.2 µM (active).

For `Cc1sc2ncnc(N3CCC(C(=O)Nc4ccccc4C(C)(C)C)CC3)c2c1C`, the AC50 (HEK293) was 16.8 µM (active).

In the case of `COc1cccc(C(=O)NC2CCCN(C3Cc4ccccc4C3)C2)c1OC` (stereo not drawn), the EC50 [4] is reported as 5.31 µM (active).

With `O=C(/C=C/c1cccc([N+](=O)[O-])c1)NCCSCc1ccc(Cl)cc1Cl` the IC50 (Fatty acid synthase [1]) was 9.88 µM (active) and the IC50 (Fatty acid synthase [2]) was 10.4 µM (active).

In the case of `CCN(C[C@H]1N[C@@](CC)(C(=O)OC)[C@H]2C(=O)N(Cc3ccccc3)C(=O)[C@@H]12)C(=O)Nc1ccc(OC)cc1`, the AC50 [7] is reported as 1.23 µM (active), the AC50 [8] is reported as 0.993 µM (active) and the AC50 [9] is reported as 0.581 µM (active). For the same molecule, the AC50 [10] was 0.421 µM (active).
